Assays:
[1] = target: T1, MMP-1 (Homo sapiens, UniProt P03956); experiment: Kinetic inhibition of MMP-1; type: biochemical; conditions: read-out: MMP-1 inhibition at fixed concentration
T1 sequence (P03956 100-469): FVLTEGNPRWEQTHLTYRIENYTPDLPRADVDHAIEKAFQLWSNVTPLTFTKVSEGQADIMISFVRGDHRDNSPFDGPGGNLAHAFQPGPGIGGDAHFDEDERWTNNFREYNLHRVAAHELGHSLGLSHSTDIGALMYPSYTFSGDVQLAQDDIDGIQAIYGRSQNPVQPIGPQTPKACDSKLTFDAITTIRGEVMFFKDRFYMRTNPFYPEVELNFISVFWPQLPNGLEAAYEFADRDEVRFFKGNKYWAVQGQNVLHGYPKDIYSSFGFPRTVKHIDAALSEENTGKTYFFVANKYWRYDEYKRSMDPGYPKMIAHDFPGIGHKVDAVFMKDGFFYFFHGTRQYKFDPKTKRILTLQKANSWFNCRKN

[2] = target: MMP-14 (Homo sapiens, UniProt P50281); experiment: Kinetic inhibition of MMP-14; conditions: slow-binding
[3] = target: T2, MMP-7 (Homo sapiens, UniProt P09237); experiment: Kinetic inhibition of MMP-7; type: biochemical; conditions: read-out: MMP-7 inhibition at fixed concentration
T2 sequence (P09237 95-267): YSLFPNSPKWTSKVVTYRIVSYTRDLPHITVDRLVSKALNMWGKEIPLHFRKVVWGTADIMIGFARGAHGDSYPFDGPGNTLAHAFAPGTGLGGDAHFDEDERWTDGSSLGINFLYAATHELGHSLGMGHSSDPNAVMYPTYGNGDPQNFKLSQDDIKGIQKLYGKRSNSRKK

| Structure (SMILES) | MMP-14 inhibition, in words [2] | also measured |
| --- | --- | --- |
| O=S(=O)(CC1CS1)c1ccc(Oc2ccc(F)cc2)cc1 (stereo not drawn) [Compound 19a] | include MMP-14 in their spectrum of inhibition | inhibition at 20 µM [1]: 0 to 3% |
| O=S(=O)(CC1CS1)c1ccc(Oc2cccc(F)c2)cc1 (stereo not drawn) [Compound 19b] | include MMP-14 in their spectrum of inhibition | inhibition at 125 µM [3]: 0 to 3% |
| O=S(=O)(CC1CS1)c1ccc(Oc2ccc(I)cc2)cc1 (stereo not drawn) [Compound 22a] | include MMP-14 in their spectrum of inhibition | inhibition at 60 µM [1]: 0 to 3%; inhibition at 10 µM [3]: 0 to 3% |
| O=S(=O)(CC1CS1)c1ccc(Oc2ccc(CO)cc2)cc1 (stereo not drawn) [Compound 26] | include MMP-14 in their spectrum of inhibition | – |
| CC(C)Oc1ccc(Oc2ccc(S(=O)(=O)CC3CS3)cc2)cc1 (stereo not drawn) [Compound 32] | include MMP-14 in their spectrum of inhibition | – |
| COCOc1ccc(Oc2ccc(S(=O)(=O)CC3CS3)cc2)cc1 (stereo not drawn) [Compound 33a] | include MMP-14 in their spectrum of inhibition | – |
| O=S(=O)(CC1CS1)c1ccc(Oc2ccc(OC(F)(F)F)cc2)cc1 (stereo not drawn) [Compound 38a] | include MMP-14 in their spectrum of inhibition | inhibition at 20 µM [3]: 0 to 3% |

Source: PMC3379896 (ACS medicinal chemistry letters, 2012)
